Measurements from PMC7211193, “Evaluation of absorption, distribution, metabolism, and excretion of [^14C]-rucaparib, a poly(ADP-ribose) polymerase inhibitor, in patients with advanced solid tumors” (Investigational New Drugs, 2019).
Where “and” joins values, the source holds several entries; their conditions need not be identical. Identical values can stand only once.

Experiments:
Assay type in all cases: in vivo, human
[1] = Metabolite profiling in pooled urine (LC-MS-Radiomatic)
Experimental: For each patient, urine samples from different collection intervals were pooled in proportion to their sample weight in order to obtain a pooled sample covering 90% of the TRA in urine. Pooled urine samples were lyophilized and then extracted at least twice with acetonitrile. The obtained supernatant was evaporated to dryness, and the dried residues were reconstituted in 20% acetonitrile in water containing 0.1% TFA. An aliquot of the supernatant was analyzed for TRA to determine extraction efficiency, and the mean recovery was ≈70%. Aliquots of the supernatants were injected into the HPLC coupled to UV and radioactive detectors to obtain metabolite profiles. The samples were also analyzed using LC-MS for metabolite identification.
(§1) Metabolite profiling and identification were performed on an LC system (Agilent) coupled to an LTQ Orbitrap mass spectrometer (Thermo Electron, Waltham, MA, USA) in combination with offline TopCount (LC-MS-TopCount) or online Radiomatic 625TR (LC-MS-Radiomatic; PerkinElmer). Proposed structures of the metabolites were based on accurate mass (<5 ppm) and comparison of mass spectral data of parent compound rucaparib and metabolite standard M324. The Radiomatic 625TR flow detector, equipped with a 200 μL flow cell, was operated using scintillation cocktail (Ultima-Flo M) delivered at a flow rate of 1 mL/min. Chromatography was done using a Phenomenex (Torrance, CA, USA) Luna Phenyl-Hexyl column (250 × 2 mm, 5 μm, 100 Å) at ambient temperature during the sample analysis. The mobile phase was (A) 0.05% TFA in water and (B) 0.05% TFA in acetonitrile, with a 0.2 mL/min flow rate. The gradient was as follows: 5% B over 2.1 min, to 20% B in 1.0 min, to 35% B in 16.9 min, isocratic at 35% B for 5 min, to 95% B over 5 min, and reduced to 5% B over 1 min, with total run time 45 min.
(§2) The abundance of unchanged rucaparib and metabolites identified in plasma, urine, and feces was determined as a percentage of the TRA in the analyzed samples. Percentage of the administered dose of rucaparib and metabolites was calculated in urine and feces (formula A). The concentration of rucaparib and its metabolites in plasma (ng Eq h/mL) was calculated based on the specific activity, TRA, and percentage of peaks (formula B). The AUC0-24h value of rucaparib and its major metabolite M324 in plasma was calculated using both Hamilton method (formula C) and linear trapezoidal method (formula D). • (A) %Doseofmetabolite=TRAinurineorfeces(dpm)÷TRAinadministereddose(dpm)×%metabolitesinmatrix • (B) Metaboliteconcentrationsinplasma(ngEq/mL)=TRAinplasma(dpm/mL)specificactivity(ngEq/dpm)×%metabolitesinthematrix • (C) Hamiltonmethod:AUC0−24h(ngEqh/mL)=concentrationinHamilton(AUC0−24h)pooledplasma(ngEq/mL)×24(h) • (D) Lineartrapezoidalmethod:AUC0−24h(ngEqh/mL)=C1h/2×1h+C1h+C4h/2×(4h−1h)+C4h+C8h/2×(8h−4h)+C8h+C24h/2×(24h−8h)

[2] = Metabolite profiling in plasma (LC-MS-TopCount); conditions: for Amount detected in plasma: Hamilton AUC0-24h pooled plasma
Experimental: Plasma samples from six patients were pooled using two methods: (1) A Hamilton pool plasma (0–24 h) for metabolite profile determination was prepared by combining plasma aliquots of a volume proportional to the time interval used for calculating the AUC (AUC0-24h pool) for each patient and (2) four time-point pooling samples were obtained by equal volume pool at 1, 4, 8, and 24 h across six patients. In addition, plasma samples at 1, 8, and 24 h were selected from three patients (Patients 03, 08, and 09) for metabolite profiles analysis to check the individual differences between patients. Samples collected after 24 h post dose were not included in the pooling due to the low radioactivity at later time points. All plasma samples (pooled and from individuals) were extracted at least two times with acetonitrile. All supernatants were evaporated to dryness, and the dried residues were reconstituted in 20% acetonitrile in water containing 0.1% TFA. The sample recovery was obtained by comparing the radioactivity concentrations before and after extraction, and the mean recovery was about 70%.
Aliquots of the supernatants were injected into the HPLC, and the HPLC elutes were collected as fractions at intervals of 30 sec per well into LumaPlate-96 DeepWell microplates (PerkinElmer). Due to the low radioactivity in each plasma sample, metabolite profiles were obtained by TopCount (PerkinElmer) analysis of HPLC elutes. The fractions were dried at room temperature, and then analyzed by a TopCount NXT radiometric microplate reader (PerkinElmer) to obtain metabolite profiles. The supernatants of extracts were also analyzed using an LC-MS method to identify metabolites.
as §1, §2

[3] = Metabolite identification by LC-MS/MS in plasma, urine and feces; conditions: F feces, P plasma, U urine
Experimental: as §1
The LTQ Orbitrap mass spectrometer was equipped with an electrospray ionization interface and operated in positive ionization mode for metabolite profiling and identification. Mass spectra were acquired in full scan (MS) (m/z 150–1500) and data-dependent scan modes. Mass spectrometer parameter settings were: spray voltage, +5.0 kV; capillary temperature, 350 °C; sheath gas, 80 (arbitrary unit); auxiliary gas, 30 (arbitrary unit); activation Q, 0.25; activation time, 30 msec; resolution, 7500; and collision energy, 35 eV.
The structures of the metabolites were identified by LC-MS/MS based on comparisons of mass spectral fragmentation patterns with those produced by the parent compound. Further confirmation of the identities of the metabolites was based on the elemental composition determined from accurate mass analyses using an Orbitrap high-resolution mass spectrometer.
The structures of the major metabolites found in plasma, urine, and feces were also confirmed by comparisons with the synthetic reference standard M324.

[4] = Metabolite profiling in pooled feces (LC-MS-Radiomatic); conditions: for Amount detected in feces: pooled fecal homogenates, mainly observed by MS only
Experimental: For each patient, homogenized feces samples from different collection intervals were pooled in proportion to their sample weight in order to obtain a pooled sample covering 90% of the TRA recovered in feces. Aliquots of the pooled fecal samples were extracted at least twice with acetonitrile. The obtained supernatant was evaporated. The dried residues were reconstituted in 40% DMSO in water to obtain maximum recovery. An aliquot of the supernatant was analyzed for TRA to determine extraction efficiency, and the mean recovery was ≈75%. Aliquots of the supernatants were injected into the HPLC coupled to UV and radioactive detectors to obtain metabolite profiles. The sample supernatants were also analyzed using LC-MS to identify metabolites.
as §1, §2

[5] = 0-24 h pooled plasma, N = 6, mean ± SD

Compound: O=CNCc1ccc(-c2[nH]c3cc(F)cc4c3c2CCNC4=O)cc1 [M337b]
- Amount observed in urine ([1]; pooled urine): small to trace amounts
- Amount detected in plasma [2]: small or trace amounts
- Matrix in which identified [3]: P, U, F
- Amount detected in feces [4]: trace amounts

Compound: NC(=O)c1ccc(-c2[nH]c3cc(F)cc4c3c2CCNC4=O)cc1 [M323]
- Amount observed in urine ([1]; pooled urine): small to trace amounts
- Amount detected in plasma [2]: small or trace amounts
- Matrix in which identified [3]: P, U, F
- Amount detected in feces [4]: trace amounts

Compound: NCc1ccc(-c2[nH]c3cc(F)cc4c3c2CCNC4=O)cc1 [M309]
- Amount observed in urine ([1]; pooled urine): small to trace amounts
- Amount detected in plasma [2]: small or trace amounts
- Matrix in which identified [3]: P, U, F
- Amount detected in feces [4]: trace amounts

Compound: O=C(O)c1ccc(-c2[nH]c3cc(F)cc4c3c2CCNC4=O)cc1 [M324]
- % of dose in pooled urine, Patient 01 ([1]; Patient 01): 6.17 % dose
- % of dose in pooled urine, Patient 03 ([1]; Patient 03): 7.24 % dose
- % of dose in pooled urine, Patient 05 ([1]; Patient 05): 7.22 % dose
- % of dose in pooled urine, Patient 06 ([1]; Patient 06): 8.54 % dose
- % of dose in pooled urine, Patient 08 ([1]; Patient 08): 6 % dose
- % of dose in pooled urine, Patient 09 ([1]; Patient 09): 10.3 % dose
- % Peak (of TRA) in urine ([1]; pooled urine covering 90% of urine radioactivity, N = 6, mean ± SD): 50.0 ± 15.5%
- % Dose in urine ([1]; pooled urine, % of administered dose, N = 6, mean ± SD): 7.58 ± 1.61%
- % Peak (of plasma radioactivity), Hamilton (AUC0-24h) pooled plasma [2, 5]: 18.6 ± 10.8%
- Concentration, Hamilton (AUC0-24h) pooled plasma [2, 5]: 94.0 ± 62.7 ng Eq/mL
- M324 as percentage of unchanged rucaparib exposure in 24-h pooled plasma ([2]; Hamilton 0-24 h pooled plasma): 30.3%
- % Radioactive peaks in individual plasma, Patient 03, 1 h ([2]; Patient 03, 1 h): 15.4%
- % Radioactive peaks in individual plasma, Patient 03, 8 h ([2]; Patient 03, 8 h): 33.3%
- % Radioactive peaks in individual plasma, Patient 03, 24 h ([2]; Patient 03, 24 h): 63.9%
- % Radioactive peaks in individual plasma, Patient 08, 1 h ([2]; Patient 08, 1 h): 7.94%
- % Radioactive peaks in individual plasma, Patient 08, 8 h ([2]; Patient 08, 8 h): 20%
- % Radioactive peaks in individual plasma, Patient 08, 24 h ([2]; Patient 08, 24 h): 61.5%
- % Radioactive peaks in individual plasma, Patient 09, 1 h ([2]; Patient 09, 1 h): 15.4%
- % Radioactive peaks in individual plasma, Patient 09, 8 h ([2]; Patient 09, 8 h): 17.9%
- % Radioactive peaks in individual plasma, Patient 09, 24 h ([2]; Patient 09, 24 h): 36.2%
- % Radioactive peaks in individual plasma, Mean ± SD, 1 h ([2]; Patients 03, 08, 09, 1 h): 12.9 ± 4.31%
- % Radioactive peaks in individual plasma, Mean ± SD, 8 h ([2]; Patients 03, 08, 09, 8 h): 23.7 ± 8.35%
- % Radioactive peaks in individual plasma, Mean ± SD, 24 h ([2]; Patients 03, 08, 09, 24 h): 53.9 ± 15.3%
- AUC0-24h, Hamilton (AUC0-24h) pooled plasma ([2]; concentration in 0-24-h pooled sample × 24 h): 2260 ng Eq h/mL
- concentration at 1 h ([2]; human, plasma, oral, 600 mg, single pooled sample from all six patients, 1 h, read-out: Mean concentration, time point pooled plasma, 1 h): 31.1 ng/mL
- concentration at 4 h ([2]; human, plasma, oral, 600 mg, single pooled sample from all six patients, 4 h, read-out: Mean concentration, time point pooled plasma, 4 h): 265 ng/mL
- concentration at 8 h ([2]; human, plasma, oral, 600 mg, single pooled sample from all six patients, 8 h, read-out: Mean concentration, time point pooled plasma, 8 h): 105 ng/mL
- concentration at 24 h ([2]; human, plasma, oral, 600 mg, single pooled sample from all six patients, 24 h, read-out: Mean concentration, time point pooled plasma, 24 h): 239 ng/mL
- Mean AUC0-24h, time point pooled plasma ([2]; trapezoidal method from 1, 4, 8, 24 h pools): 3960 ng Eq h/mL
- Matrix in which identified [3]: P, U, F
- % of dose in pooled fecal homogenate, Patient 01 ([4]; Patient 01): 6.39 % dose
- % of dose in pooled fecal homogenate, Patient 03 ([4]; Patient 03): 7.82 % dose
- % of dose in pooled fecal homogenate, Patient 05 ([4]; Patient 05): 3.33 % dose
- % of dose in pooled fecal homogenate, Patient 06 ([4]; Patient 06): 2.22 % dose
- % of dose in pooled fecal homogenate, Patient 08 ([4]; Patient 08): 0.00 % dose
- % of dose in pooled fecal homogenate, Patient 09 ([4]; Patient 09): 0.00 % dose
- % Peak (of TRA) in feces ([4]; pooled fecal homogenate covering >90% of fecal excretion, N = 6, mean ± SD): 5.07 ± 4.95%
- % Dose in feces ([4]; pooled fecal homogenate, % of administered dose, N = 6, mean ± SD): 3.3% and 3.29 ± 3.25%
